Legend:
PTH1R-E35K [1] = target: T1, PTH1R-E35K (Homo sapiens, UniProt Q03431, E35K); assay: BRET β-arrestin2 recruitment to early endosomes (rGFP-FYVE), HEK293; format: cell-based
From the text: (§1) Images are representative of three independent experiments.
(§2) Scale bars in a and c indicate 10 μm.

PTH1R-E35K [2] = target: T1, PTH1R-E35K; assay: cAMP time course with ligand and after ligand washout (duration), Gs22a cells; format: cell-based; settings: 10 nM, 30 min pretreatment
Procedure: (§3) Data are means (±SEM) of five (a), four (b, c, e) or three (d) separate experiments.
(§4) Fig. 7 Effects of Eiken mutation on duration of cAMP signaling and desensitization to ligand re-challenge. a Assays were performed in Gs22a cells transiently transfected to express PTH1R-WT or a mutant PTH1R. a Duration of initial cAMP signaling response. […] Response to Ligand rechallenge. After the washout-periods shown in panel a, the cells were rechallenged with the same ligand (1.0 nM) for 60 min and cAMP accumulation was assessed. […] P values indicate comparison by Student’s t test to pre-vehicle treatment: Data are means ± SEM from four separate experiments each in duplicate (b) or quadruplicate (a).
(§5) Basal and ligand-stimulated cAMP signaling was assessed via the glosensor cAMP reporter in Gs22a cells transiently transfected to express either the WT or a mutant hPTH1R in white 96-well plates at room temperature. […] The plate was then placed into a PerkinElmer Envision plate reader and luminescence, as counts per second (cps), was measured at 2-min intervals for 15 min, during which time luciferin uptake occurred and luminescence reached a near steady-state baseline level. The plate was then removed from the plate reader, CIDB alone (vehicle) or containing a test ligand at varying concentrations was added, and luminescence was again measured at 2 min intervals for an additional 30–60 min. […]

PTH1R-R485X [3] = system: PTH1R-R485X
Procedure: as §1
Data are representative of three independent experiments (a-d); or means ± SEM of three or four independent experiments (e, f). Bar heights in graphs of panels b and d indicate the means ± SEM of counts from the five cells shown by the individual data points. Scale bars in a and c indicate 10 μm.
Ligand-induced recruitment of β-arrestin2^YFP was assessed in GBR-24 cells, which are HEK293/glosensor (Gs22A)-derived cells stably expressing β-arrestin2^YFP [42]. The cells in six-well plates were transiently transfected with plasmid DNA encoding PTH1R-WT or mutant derivative, and 24 hours later seeded onto glass coverslips in 6-well plates. […] In some experiments, the cells were imaged by confocal microscopy using a Leica DMi8 inverted Microscope at ×400 magnification, and the images were processed using Leica Application Suite X (LAS X) software. Regions of interest were digitally expanded 3-5X to improve views.
Quantification of β-arrestin2^YFP clusters was performed using ImageJ software (vers. 1.53)[67]. The color images were converted to 8 bit and then 16 bit gray-scale, and the threshold was adjusted on a cell-by-cell basis to show distinct particles (interpreted as clusters of β-arrestin2^YFP in intracellular vesicles); threshold values ranged from ~ 20-60. The free-hand tool was used to define the area analyzed for each cell, and the Analyze Particle tool was used to obtain the number of particles, the total area, and the mean gray scale (intensity) of each particle for each cell.

PTH1R-Y134S [4] = target: T2, PTH1R-Y134S (Homo sapiens, UniProt Q03431, Y134S); assay: Fluorescence microscopy of ligand internalization and β-arrestin2YFP recruitment, GBR-24 cells, ImageJ; format: cell-based
From the text: as §1, §2

PTH1R-E35K [5] = target: T1, PTH1R-E35K; assay: as above; format: cell-based
From the text: as §1, §2

PTH1R-Y134S [6] = target: T2, PTH1R-Y134S; assay: cAMP time course with ligand and after ligand washout (duration), Gs22a cells; format: cell-based; settings: 10 nM, 30 min pretreatment
Procedure: as §3, §4, §5

PTH1R-E35K [7] = target: T1, PTH1R-E35K; assay: BRET β-arrestin2 recruitment to plasma membrane (rGFP-CAAX), HEK293; format: cell-based
From the text: as §1, §2

PTH1R-WT [8] = target: T3, PTH1R-WT (Homo sapiens, UniProt Q03431); assay: Fluorescence microscopy of ligand internalization and β-arrestin2YFP recruitment, GBR-24 cells, ImageJ; format: cell-based; settings: 30 min
From the text: as §1, §2

PTH1R-H223R [9] = target: T4, PTH1R-H223R (Homo sapiens, UniProt Q03431, H223R); assay: as above; format: cell-based; settings: 10 nM, 30 min
From the text: as §1

PTH1R-H223R [10] = target: T4, PTH1R-H223R; assay: Inverse agonist effect on basal cAMP, Gs22a cells; format: cell-based; settings: 100 nM
From the text: Minutes Minutes [PTHrP(7-36)] Log M
+Veh. +SW +Veh. +SW +Veh.+SW +Veh. +SW +SW
DMSO Dyngo+Veh. DMSO Dyngo+Veh. DMSO Dyngo+Veh. DMSO Dyngo+Veh. DMSO DMSO Dyngo+Veh.Dyngo+SW
Suppl ement al Fi gure 9.
Dat a f or PT H1R-H223R and
DMSO+PTHrP(7-36) Dyngo+Veh. Dyngo+PTHrP(7-36) DMSO+Veh. DMSO+SW106Dyngo+Veh. […] DMSO+SW106Dyngo+Veh. Dyngo+SW106 PTH1R-R485X DMSO+Veh. DMSO+SW106Dyngo+Veh. Dyngo+SW106 ##* DMSO+Veh. DMSO+SW106Dyngo+Veh. Dyngo+SW106 ##*** DMSO+Veh. DMSO+SW106Dyngo+Veh. Dyngo+SW106 PTH1R-H223R)

PTH1R-R485X [11] = settings: PTH(1-34) 1 nM
Procedure: was added and moni t or i ng c ont i nued f or an addi t i onal 30 mi nut es .
shown in panel a. c) Cel l s wer e pr et r eat ed f or 15 mi nut es wi t h ei t her DMSO or Dy ngo4a ( 30 uM) , t hen
mi nut es ( agoni s t-was hout phas e) . T he AUCs of t he 90-mi nut e agoni s t-was hout r es pons es f or eac h
wi t h v ehi c l e dur i ng t he agoni s t-was hout phas e ( 100%) .

PTH1R-R485X [12] = settings: 100 nM
Procedure: Data are means ± SEM of three separate experiments, with triplicate wells in each.
Basal and ligand-stimulated cAMP signaling was assessed via the glosensor cAMP reporter in Gs22a cells transiently transfected to express either the WT or a mutant hPTH1R in white 96-well plates at room temperature. […] The plate was then placed into a PerkinElmer Envision plate reader and luminescence, as counts per second (cps), was measured at 2-min intervals for 15 min, during which time luciferin uptake occurred and luminescence reached a near steady-state baseline level. The plate was then removed from the plate reader, CIDB alone (vehicle) or containing a test ligand at varying concentrations was added, and luminescence was again measured at 2 min intervals for an additional 30–60 min.

PTH1R-R485X [13] = settings: 30 nM, 30 min, RT
Procedure: (§6) To visualize receptors on the surface of non-stimulated cells, cells were fixed with 3.7% paraformaldehyde for 5 min at room temperature, incubated for 1 hour at room temperature with anti-HA mouse monoclonal primary antibody (anti-HA.11, BioLegend, Cat. No. 901513), rinsed, incubated for 1 h at room temperature with a goat-anti-mouse IgG secondary antibody poly-conjugated to HRP (poly-HRP-anti-mIgG; ThermoFisher Scientific, Cat. No. 32230), stained with Tyramide-Alexafluor-594 (Tyr^594; Tyramide SuperBoost Kit ThermoFisher Scientific, Cat. No. B4092), then mounted on a glass microscope slide in Vectashield containing DAPI and imaged using a Nikon Eclipse fluorescence microscope at 400X magnification.

PTH1R-WT [14] = target: T3, PTH1R-WT; assay: Visualization of surface receptors after PTH(1-34)FAM pre-stimulation; format: cell-based; settings: 30 nM, 30 min, RT
Procedure: as §6

[15] = 30 nM TMR ligand (unlabeled: 10 nM), 30 min

**Q.** Which results are given for “AVSEIQL L H D KGKSIQD L R R R FFL H H L IAEIH TAEI.N H2 [Ile^5-PTHrP(1-36)]”?
**A.** potency ratio vs PTHrP(1-36) (PTH1R-E35K [1]): ~10 fold; potency vs PTH(1-34), in words (PTH1R-E35K [1]): as potent as PTH(1-34); duration of cAMP response vs His5-PTHrP(1-36), in words (PTH1R-E35K [2]): more sustained cAMP signaling response; co-clustering of β-arrestin2YFP, in words (PTH1R-R485X [3]; 10 nM unlabeled peptide): not; co-clustering of β-arrestin2YFP, in words (PTH1R-Y134S [4]; 10 nM unlabeled peptide): r obust co-clust ering; co-clustering of β-arrestin2YFP, in words (PTH1R-E35K [5]; 10 nM unlabeled peptide): r obust co-clust ering; duration of cAMP response vs His5-PTHrP(1-36), in words (PTH1R-Y134S [6]): more sustained cAMP signaling response; potency ratio vs PTHrP(1-36) (PTH1R-E35K [7]): ~10 fold; potency vs PTH(1-34), in words (PTH1R-E35K [7]): as potent as PTH(1-34)

**Q.** Which “co-clustering of β-arrestin2YFP with ligand in endosomes, in words” value (“co-clustering … in endosomes, in words” for short) (PTH1R-R485X [3]; [15]) does the source give for “AVSEIQL L H D KGrKSIQD L R R R FFL H H L IAEIH TAEI.N H 2 [Ile^5-PTHrP(1-36)^TMR, tetramethyl rhodamine attached to the epsilon amino function of lysine-13]” here?
**A.** The value was “remained dispersed in the cytoplasm”.

**Q.** And the “co-clustering … in endosomes, in words” value (PTH1R-WT [8]; 30 nM TMR ligand (unlabeled: 10 nM))?
**A.** Its value is “robust co-clustering of β-arrestin2^YFP”.

**Q.** And the “co-clustering … in endosomes, in words” value (PTH1R-Y134S [4]; [15])?
**A.** Its value is “robust co-clustering of β-arrestin2^YFP”.

**Q.** And the “co-clustering … in endosomes, in words” value (PTH1R-E35K [5]; [15])?
**A.** Its value is “robust co-clustering of β-arrestin2^YFP”.

**Q.** What does the source list for “AVSEIQLnLHNLGrKH L ASVERnLQWLRKKLQDVHNF.NH2 [PTH(1-34)^TMR, tetramethyl rhodamine attached to the epsilon amino function of lysine-13]”?
**A.** co-localization of ligand clusters with β-arrestin2YFP, in words (PTH1R-R485X [3]; 10 nM, 30 min): did not co-localize in clusters; co-localization of ligand clusters with β-arrestin2YFP, in words (PTH1R-WT [8]; 10 nM): co-localized with β-arrestin2^YFP; co-localization of ligand clusters with β-arrestin2YFP, in words (PTH1R-Y134S [4]; 10 nM, 30 min): co-localized with β-arrestin2^YFP; co-localization of ligand clusters with β-arrestin2YFP, in words (PTH1R-E35K [5]; 10 nM, 30 min): co-localized with β-arrestin2^YFP; co-localization of ligand clusters with β-arrestin2YFP, in words (PTH1R-H223R [9]): co-localized with β-arrestin2^YFP

**Q.** For “LLHDLdWKSIQD L R R R FWL H H L IAEIH TAEY.N H 2 [dTrp^12-PTHrP(7-36), [Leu^11,dTrp^12,Trp^23,Tyr^36]-PTHrP(7–36)NH2]”, which “effect on basal cAMP, in words” value (PTH1R-H223R [10]) is on record?
**A.** Its value is “rapid decreases in the intracellular cAMP levels”.

**Q.** What about the “inhibition of subsequently added PTH(1-34) cAMP signaling, in words” value (PTH1R-R485X [11]) of the same substance?
**A.** Its value is “dose-dependent inhibition of cAMP signaling”.

**Q.** And the “effect on basal cAMP, in words” value (PTH1R-R485X [12])?
**A.** Its value is “rapid decreases in the intracellular cAMP levels”.

**Q.** How did the “ligand internalization, in words” value (PTH1R-R485X [13]) turn out when “SVSEIQL MH N L GfKH L N SMER VEWL R KKL QD VH N F.OH [PTH(1-34)FAM, 5(6)-carboxyfluorescein attached to the epsilon amino function of lysine-13]” was run?
**A.** The value was “observed mainly in internalized clusters”.

**Q.** And the “ligand internalization, in words” value (PTH1R-WT [14])?
**A.** The value was “observed mainly in internalized clusters”.

Source: article PMC10238420, “Altered Signaling and Desensitization Responses in PTH1R Mutants Associated with Eiken Syndrome” (Communications Biology, 2023)
